From the supplement of paper PMC13380429

Key:
Conditions in all cases: 72 h
[1] = test system: Caco-2; assay: cell viability relative to DMSO; higher = less toxic
[2] = test system: Calu-3; assay: as above
[3] = test system: HepG2; assay: as above
[4] = test system: U2OS; assay: as above
[5] = test system: Vero E6; assay: as above
[6] = test system: Caco-2; assay: relative viability EC50 (midpoint between 100% and the lowest measured viability); higher = less toxic
[7] = test system: Calu-3; assay: as above
[8] = test system: HepG2; assay: as above
[9] = test system: U2OS; assay: as above
[10] = test system: Vero E6; assay: as above
[11] = test system: Caco-2; assay: drug sensitivity score (DSS) for viability; higher = more toxic; extreme values may be limits of the assay
[12] = test system: Calu-3; assay: as above
[13] = test system: HepG2; assay: as above
[14] = test system: U2OS; assay: as above
[15] = test system: Vero E6; assay: as above

Structure (SMILES)	cell viability ([1]; 1 nM) [%]	cell viability ([1]; 10 nM) [%]	cell viability ([1]; 100 nM) [%]	cell viability ([1]; 1000 nM) [%]	cell viability ([1]; 10000 nM) [%]	cell viability ([2]; 1 nM) [%]	cell viability ([2]; 10 nM) [%]	cell viability ([2]; 100 nM) [%]	cell viability ([2]; 1000 nM) [%]	cell viability ([2]; 10000 nM) [%]	cell viability ([3]; 1 nM) [%]	cell viability ([3]; 10 nM) [%]	cell viability ([3]; 100 nM) [%]	cell viability ([3]; 1000 nM) [%]	cell viability ([3]; 10000 nM) [%]	cell viability ([4]; 1 nM) [%]	cell viability ([4]; 10 nM) [%]	cell viability ([4]; 100 nM) [%]	cell viability ([4]; 1000 nM) [%]	cell viability ([4]; 10000 nM) [%]	cell viability ([5]; 1 nM) [%]	cell viability ([5]; 10 nM) [%]	cell viability ([5]; 100 nM) [%]	cell viability ([5]; 1000 nM) [%]	cell viability ([5]; 10000 nM) [%]	relative viability EC50 [6] [µM]	relative viability EC50 [7] [µM]	relative viability EC50 [8] [µM]	relative viability EC50 [9] [µM]	relative viability EC50 [10] [µM]	drug sensitivity score [11]	drug sensitivity score [12]	drug sensitivity score [13]	drug sensitivity score [14]	drug sensitivity score [15]
CN(Cc1ccccc1)C(=O)[C@H](Cc1ccc2ccccc2c1)NC(=O)[C@@H]1CCCN1C(=O)Nc1ccccc1[N+](=O)[O-] [SDZ-NKT-343]	96.3	97.3	96.1	89	75.1	95	93.7	98.9	97.3	90.7	102	93.9	103	93.6	92.2	105	103	101	106	87.3	102	98.7	106	97.7	99.2	> 10	> 10	> 10	> 10	> 10	1.7	0	0	0	0
O=C(N[C@@H]1Cc2ccccc2N(C[C@@H](O)CO)C1=O)c1cc2cc(Cl)sc2[nH]1 [GPi-688]	101	98	96.9	94.2	92.9	102	99.3	99.9	94.1	87.8	96	104	98.1	104	100	98.4	102	95.2	96.8	94.7	99.9	102	104	100	90.5	> 10	> 10	> 10	> 10	> 10	0	0.3	0	0	0
O=C(O)CCc1nc(-c2ccccc2)c(-c2ccccc2)o1 [oxaprozin]	94.7	97.1	100	108	101	98.3	92.1	102	96.8	102	104	99.1	107	109	92.1	102	95.4	101	94.2	96.8	99	97.5	94.8	104	97.2	> 10	> 10	> 10	> 10	> 10	0	0	0	0	0
CC1OC2(CS1)CN1CCC2CC1 (stereo not given) [cevimeline]	98.3	88.1	91.3	91	96.3	106	92.9	102	97.1	103	107	97	94.9	89.2	111	99.1	98.9	99.7	106	106	96.7	91.5	92.7	89.7	102	> 10	> 10	> 10	> 10	> 10	0	0	0	0	0
COc1ccc(-c2coc3cc(O)ccc3c2=O)cc1 [formononetin]	101	101	100	95.6	94.2	103	94.5	102	89.8	93.7	102	106	97.8	104	96.7	102	98	99.9	102	103	102	101	99.9	105	102	> 10	> 10	> 10	> 10	> 10	0	0	0	0	0
O=C(O)c1cc(O)c2ccc(Cl)cc2n1 [7-chlorokynurenic-acid]	102	96.1	97.1	99.1	109	99.9	94.1	98.4	98	108	106	104	100	101	97	101	97.6	96.4	94.3	108	96.7	102	94.2	95.3	108	> 10	> 10	> 10	> 10	> 10	0	0	0	0	0
CN(CCOc1ccc(CC2SC(=O)NC2=O)cc1)c1ccccn1 (stereo not given) [rosiglitazone]	99.9	93	93.9	81.9	90.7	105	96.2	94.6	102	108	94.9	97.1	93.5	96.5	89.5	96.7	97.2	98.1	98.5	100	96.3	95.2	88.3	82.1	81.3	> 10	> 10	> 10	> 10	> 10	0.9	0	0	0	2.8
